Read-outs that look alike come from different tables or passages of the source.
What was measured:
HSV-1 GFP [1] = assay type: cell-based, Herpes simplex virus 1 (HSV-1); conditions: for HSV entry into Vero cells (relative fluorescence intensity): 30 minutes pretreatment, ML-7 20 μM, ACC 40 μM
HSV-1(F) = assay: Murine corneal infection model; assay type: in vivo, ICR mice
Method: After the cornea of ICR mice (female/5-week-old) was slightly injured with an injection needle, a medium containing or not containing 20 μM ML-7 was instilled in the eye twice with an interval of 10 minutes. After incubation for 10 minutes, an HSV-1(F) strain was inoculated at 5×10^5 PFU/eye. The virus titer in the tear, symptoms of keratitis, and survival of mice were studied.
After the cornea of 28 ICR mice (female/5-week-old) per group was injured with an injection needle, a 20 μM medium containing or not containing ML-7 and 5×10^5 HSV-1(F) diluted in Medium199 were simultaneously instilled in their eye, followed by observation for 21 days.
After the cornea of 28 ICR mice (female/5-week-old) per group was injured with an injection needle, a 50 μM BAPTA-AM was instilled in their eye twice with an interval of 10 minutes. After incubation for 10 minutes, 5×10^5 HSV-1(F) diluted in Medium 199 was instilled in their eye, followed by observation for 21 days. In Mock-treated group, 0.2% DMSO in Medium 199 was used instead of 50 μM BAPTA-AM.

influenza virus [2] = assay type: cell-based
HSV-1 GFP [3] = assay type: cell-based, Herpes simplex virus 1 (HSV-1)
influenza virus [4] = assay type: cell-based; remark: listed apart in the source
HSV-2 GFP = HSV-2 GFP infection of Vero cells, flow cytometry; assay type: cell-based, Herpes simplex virus 2; conditions: Vero cells pretreated with ML-7
NMHC-IIA = assay type: cell-based; conditions: Vero cells pretreated with ML-7
phosphorylation of RLC = assay: Phosphorylation of RLC in Vero cells exposed to HSV-1, immunoblotting; conditions: 20 μM ML-7, MOI=50
NMHC-IIB = NMHC-IIB at the cell surface of HSV-1(F)-infected Cos-1 cells, biotinylation, avidin precipitation, immunoblotting; conditions: Cos-1 cells pretreated with ML-7, wild-type HSV-1(F)

Nc1nc2c(ncn2COCCO)c(=O)[nH]1 [ACC, acyclovir]
HSV entry into Vero cells (relative fluorescence intensity) (HSV-1 GFP [1]; HSV-1 GFP MOI=1, six hours after infection): not inhibited

CC(=O)OCOC(=O)CN(CC(=O)OCOC(C)=O)c1ccccc1OCCOc1ccccc1N(CC(=O)OCOC(C)=O)CC(=O)OCOC(C)=O [BAPTA-AM]
survival rate (HSV-1(F); 50 μM BAPTA-AM instilled before infection, observation 21 days, vs Mock-treated group): significantly high | influence on influenza virus infection (influenza virus [2]; Cos-1 cells, BAPTA-AM): not observed | MFI, HSV-1 GFP (HSV-1 GFP [3]): decreased in a BAPTA-AM concentration dependent manner | relative MFI, influenza virus (influenza virus [4]): not influenced | mean fluorescence intensity (MFI), HSV-1 GFP (HSV-1 GFP [1]): decreased in a BAPTA-AM concentration dependent manner

O=S(=O)(c1cccc2c(I)cccc12)N1CCCNCC1 [ML-7]
HSV-2 GFP infection (HSV-2 GFP): dose-independently inhibited | increase in the concentration of NMHC-IIA in the vicinity of the cell membrane upon virus entry (NMHC-IIA): inhibited | survival rate of mice (HSV-1(F); 20 μM ML-7 instilled before infection): significant increase | symptoms of keratitis (HSV-1(F); 20 μM ML-7 instilled before infection, after five days, vs untreated mice): significant decrease | virus titer in the tear (HSV-1(F); 20 μM ML-7 instilled before infection, two days after virus inoculation, vs untreated mice): significant decrease | survival rate of mice (HSV-1(F); 20 μM ML-7 instilled simultaneously with HSV-1(F), observation 21 days): further significant increase | influenza virus infection (influenza virus [2]; Cos-1 cells pretreated with ML-7): not influenced | HSV-1 infection (HSV-1 GFP [3]): dose-independently inhibited | influenza virus infection (influenza virus [4]; Vero cells pretreated with ML-7): not influenced | enhancement of phosphorylation of RLC by HSV-1 infection (phosphorylation of RLC): inhibits this enhancement | concentration of NMHC-IIB in the vicinity of the cell membrane (NMHC-IIB): decreased significantly | Infection with HSV-1 GFP (HSV-1 GFP [1]): inhibited dose-dependently | HSV entry into Vero cells (relative fluorescence intensity) (HSV-1 GFP [1]; […]): inhibited
